From patent US9517223B2, “Methods to treat neurodegenerative diseases” (Children's Medical Center Corporation, priority 2012, dated 2016)

Experiments:
[1] = system: ALS patient-derived motor neurons (39b); experiment: Extracellular MEA recording of spontaneous firing, SOD1 A4V ALS motor neurons; settings: retigabine 10 μM; two additional MEAs from separate differentiations
[2] = mice, 10 mg/kg IP injection for several weeks; cited from earlier work

CCOC(=O)Nc1ccc(NCc2ccc(F)cc2)cc1N [Retigabine]
percentage of active neurons blocked (spontaneous firing) [1]: 100% | side effects [2]: without apparent side effects
